Results reported in patent US20100022481A1, “Drug Carriers, Their Synthesis, and Methods of Use Thereof” (priority 2006, published 2010).
Values belong to the molecule of their own block, whether it stands above or below them.

Key:
[1] = Binding potential of ALN-CD on HA; conditions: rhodamine B label; 10 minutes with HA at room temperature, washed with H2O 5-10 times
Method: 20 mg rhodamine B labeled ALN-CD or CD and 1 mg rhodamine B were dissolved in 0.5 ml water separately, and 100 mg of hydroxyapatite (HA) was added. The mixture was then allowed to stir gently for 10 minutes at room temperature. HA was recovered by centrifugation (10,000 rpm, 2 minutes), then washed with H2O 5-10 times to remove unbound compounds. The HA was allowed to dry under vacuum at room temperature.

[2] = system: rat mandible; assay: Bilateral rat mandible model, bone growth and inflammation, histomorphometry; format: in vivo, Female Sprague Dawley rats; conditions: for New Bone Area (mm^2 ± SEM) / New Bone Width-1 (mm ± SEM) / New Bone Width-3 (mm ± SEM): Table 1, pairs tested on contralateral sides; for new bone growth / bone anabolic effect (in words): one injection at rat mandible
[3] = Phase solubility of dexamethasone or PGE1 in the presence of ALN-CD
[4] = 50 μl of 400 mg/mL ALN-CD or 50 μl of 81 mg/ml ALN
[5] = one injection, contralateral sides, 24 days

color of HA after washings (binding to the HA surface) [1]: disappeared
Molecule: CCN(CC)c1ccc2c(-c3ccccc3C(=O)O)c3ccc(=[N+](CC)CC)cc-3oc2c1.[Cl-] [rhodamine B]

Molecule: NCCCC(O)(P(=O)(O)O)P(=O)(O)O [alendronate]
cases with new bone on distant areas of the mandible (e.g., the medial surface) [2, 4]: 8 of 8
cases with new bone on the lateral surface of the mandible (location of injection) [2, 4]: 5 of 8
New Bone Area (mm^2 ± SEM) ([2]; 24 days): 0.61 ± 0.12 mm^2
New Bone Width-1 (mm ± SEM) ([2]; 24 days): 0.14 ± 0.05 mm
New Bone Width-3 (mm ± SEM) ([2]; 24 days): 0.24 ± 0.11 mm
new bone area ([2]; equivalent amounts of ALN: 50 μl of 400 mg/mL ALN-CD or 50 μl of 81 mg/ml ALN): 0.61 ± 0.12 mm^2
new bone growth / bone anabolic effect (in words) ([2]; 24 days): moderate bone anabolic effect

Molecule: hydroxypropyl(HP)-β-CD [HP-β-CD]
New Bone Area (mm^2 ± SEM) ([2]; 24 days): 0.25 ± 0.08 mm^2
New Bone Width-1 (mm ± SEM) ([2]; 24 days): 0.05 ± 0.02 mm
New Bone Width-3 (mm ± SEM) ([2]; 24 days): 0.19 ± 0.11 mm
increase in new bone width [2, 5]: 0.07±0.10 mm
percentage of osteoblasts on the lateral periosteal surface [2, 5]: 7.3%

Molecule: CCCCC[C@H](O)/C=C/[C@H]1[C@H](O)CC(=O)[C@@H]1CCCCCCC(=O)O [PGE1, prostaglandin E1]
new bone growth / bone anabolic effect (in words) ([2]; 24 days): negligible

aqueous solubility as a function of the concentration of ALN-CD ([3]; ALN-CD 0 to 10 mM, 25° C., 3 days): increases
apparent 1:1 stability constant Kc ([3]; complex with ALN-CD, water, 25° C.): 2570 M⁻¹
solubility diagram type according to Higuchi and Connors ([3]; with ALN-CD): AL type
Molecule: C[C@@H]1C[C@H]2[C@@H]3CCC4=CC(=O)C=C[C@]4(C)[C@@]3(F)[C@@H](O)C[C@]2(C)[C@@]1(O)C(=O)CO [dexamethasone]
